Data set [1] is described as follows: Microsomal stability assay, human liver microsomes. It counts as in vitro ADME. As to conditions: pH 7.4, 1 μM compound, 0.5 mg/mL protein, 37° C., read-out: HLM +/− NADPH: Clint (μL/min/mg protein). The procedure: Microsomal stability assay is a widely used in vitro model to characterize the metabolic conversion by phase I enzymes, such as cytochrome P450 (CYP) enzymes. Since metabolism is known to be highly variable in different species, microsomal stability assay is commonly run in multiple species. Metabolic stability of testing compound can be evaluated using human, rat, mouse, or other animal liver or intestine microsomes to predict intrinsic clearance.
The assay was carried out in 96-well microtiter plates at 37° C. Reaction mixtures (25 μL) contained a final concentration of 1 μM test compound, 0.5 mg/mL liver microsomes protein, and 1 mM NADPH and/or 1 mM UDPGA (with alamethicin) in 100 mM potassium phosphate, pH 7.4 buffer with 3 mM MgCl2. The incubation was done with N=1, but duplicate incubation at each time point can be prepared if necessary. At each of the time points (for example, 0, 15, 30, and 60 minutes), 150 μL of quench solution (100% acetonitrile with 0.1% formic acid) with internal standard was transferred to each well. Besides the zero minute controls, mixtures containing the same components except the NADPH can also be prepared as the negative control. Verapamil was included as a positive control to verify assay performance. Plates were sealed, vortexed, and centrifuged at 4° C. for 15 minutes at 4000 rpm. The supernatant is transferred to fresh plates for LC/MS/MS analysis.
Summarized conditions: [Compound]=[…], [LM]=0.5 mg/mL, [NADPH]=1 mM and/or [UDPGA]=1 mM, Buffer=100 mM Potassium Phosphate, pH 7.4 with 3 mM MgCl2, Time=0, 15, 30, and 60 min, and Temperature=37° C.
All samples were analyzed on LC/MS/MS using an AB Sciex API 4000 instrument, coupled to a Shimadzu LC-20AD LC Pump system. Analytical samples were separated using a Waters Atlantis T3 dC18 reverse phase HPLC column (20 mm×2.1 mm) at a flow rate of 0.5 mL/min. The mobile phase consisted of 0.1% formic acid in water (solvent A) and 0.1% formic acid in 100% acetonitrile (solvent B).
The extent of metabolism is calculated as the disappearance of the test compound, compared to the 0-min time incubation. Initial rates are calculated for the compound concentration and used to determine half-life (t½) values and subsequently, the intrinsic clearance (Clint). Clint=(0.693)(1/t½ (min))(g of liver/kg of body weight)(mL incubation/mg of microsomal protein)(45 mg of microsomal protein/g of liver weight)
Background: Liver microsomes are a subcellular fraction often used to study metabolism.

A further data set deals with T1, androgen receptor (AR) (Homo sapiens, UniProt P10275, T878A).
T1 construct: LNCaP cells were transiently transfected with the PSA (6.1 kb)-luciferase reporter for 24 h; endogenous in cells; host or cells: LNCaP
T1 sequence (P10275 1-920 T878A): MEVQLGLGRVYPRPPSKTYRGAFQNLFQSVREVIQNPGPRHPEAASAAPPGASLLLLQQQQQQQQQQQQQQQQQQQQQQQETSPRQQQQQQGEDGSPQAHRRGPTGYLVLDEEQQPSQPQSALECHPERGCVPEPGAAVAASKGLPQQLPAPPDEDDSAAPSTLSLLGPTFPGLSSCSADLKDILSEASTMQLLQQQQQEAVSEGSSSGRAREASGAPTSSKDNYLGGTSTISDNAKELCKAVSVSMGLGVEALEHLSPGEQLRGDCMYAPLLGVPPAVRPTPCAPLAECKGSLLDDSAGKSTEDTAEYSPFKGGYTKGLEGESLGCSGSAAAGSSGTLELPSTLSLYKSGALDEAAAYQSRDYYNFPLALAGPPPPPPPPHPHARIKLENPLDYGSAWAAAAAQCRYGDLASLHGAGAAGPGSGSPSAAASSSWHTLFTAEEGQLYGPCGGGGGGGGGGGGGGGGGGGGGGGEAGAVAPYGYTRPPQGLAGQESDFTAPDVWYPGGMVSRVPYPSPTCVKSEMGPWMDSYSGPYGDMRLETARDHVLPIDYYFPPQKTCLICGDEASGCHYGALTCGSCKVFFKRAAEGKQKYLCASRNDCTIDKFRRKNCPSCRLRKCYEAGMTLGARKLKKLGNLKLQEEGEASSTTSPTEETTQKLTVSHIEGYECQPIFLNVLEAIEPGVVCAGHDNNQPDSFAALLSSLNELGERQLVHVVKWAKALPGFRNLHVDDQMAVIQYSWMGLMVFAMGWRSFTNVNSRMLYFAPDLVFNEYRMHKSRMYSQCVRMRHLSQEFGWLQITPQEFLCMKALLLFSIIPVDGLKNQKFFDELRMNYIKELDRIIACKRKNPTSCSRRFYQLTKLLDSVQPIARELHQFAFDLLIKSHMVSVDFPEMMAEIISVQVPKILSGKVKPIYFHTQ
As to the kind of experiment: Androgen-induced PSA (6.1 kb)-luciferase reporter assay in LNCaP cells. It counts as cell-based. As to conditions: LNCaP cells transfected with PSA (6.1 kb)-luciferase reporter, R1881 1 nM, 24 h; read-out: PSA-Luc IC50 Range. The procedure:
The PSA (6.1 kb)-luciferase reporter contains functional AREs (androgen response elements) to which AR binds in response to androgen to induce luciferase activity.
Cells were lysed using Passive Lysis Buffer (Promega) and then collected into V-bottom 96-well tissue culture plates. Lysates were centrifuged at 4° C. for 5 minutes at 3000 rpm. To measure luminescence of LNCaP cell lysates the Firefly Luciferase Assay System (Promega) was employed, according to manufacturer's protocol. Relative luminescence units (RLU) in cell lysates were detected for 10 seconds using Promega GloMax-Multi Detection Luminometer (Promega). Values were normalized to protein content. GraphPad Prism graphing software was used to calculate IC50 values.
Comparisons between treatment and control groups were compared using Two-Way ANOVA with post-hoc Dunnett's and Tukey's tests. Differences were considered statistically significant at P values less than 0.05.

The IC50 is the point on the concentration scale where inhibition reaches its midpoint. As to `CC(C)(c1ccc(OCc2cn(S(C)(=O)=O)cn2)cc1)c1cc(Cl)c(OCCCCl)c(Cl)c1` [Compound A5, 4-((4-(2-(3,5-dichloro-4-(3-chloropropoxy)phenyl)propan-2-yl)phenoxy)methyl)-1-(methylsulfonyl)-1H-imidazole], the microsomal CLint at 1 μM in data set [1] is < 12 µL/min/mg. Further, on androgen receptor (AR), the IC50 was in the range of 500 to 2000 nM.
The like results for `CC(C)(c1ccc(OCc2nnc(S(C)(=O)=O)o2)cc1)c1cc(Cl)c(OCCCCl)c(Cl)c1` [Compound A7, 2-((4-(2-(3,5-dichloro-4-(3-chloropropoxy)phenyl)propan-2-yl)phenoxy)methyl)-5-(methylsulfonyl)-1,3,4-oxadiazole] were, in that order, ≥ 48 µL/min/mg and > 2000 nM.
As for `CSc1nnc(COc2ccc(C(C)(C)c3cc(Cl)c(OCCCCl)c(Cl)c3)cc2)o1` [Compound A17], in data set [1], the microsomal CLint at 1 μM was < 12 µL/min/mg. In addition, the IC50 at androgen receptor (AR) lay within 500 to 2000 nM.
Turning to `CC(C)(c1ccc(OCc2nnc(O)o2)cc1)c1cc(Cl)c(OCCCCl)c(Cl)c1` [Compound A18], the microsomal CLint at 1 μM in data set [1] is ≥ 48 µL/min/mg. Further, the IC50 on androgen receptor (AR) is > 2000 nM.
For `CC(C)(c1ccc(-c2coc(CNS(C)(=O)=O)n2)cc1)c1cc(Cl)c(OCCCCl)c(Cl)c1` [Compound A21], the microsomal CLint at 1 μM in data set [1] was < 12 µL/min/mg.
Take `CC(C)(c1ccc(-c2cc(CNS(C)(=O)=O)on2)cc1)c1cc(Cl)c(OCCCCl)c(Cl)c1` [Compound A22, N-((3-(4-(2-(3,5-dichloro-4-(3-chloropropoxy)phenyl)propan-2-yl)phenyl) Isoxazol-5-yl)methyl)methanesulfonamide]: the microsomal CLint at 1 μM in data set [1] is < 12 µL/min/mg. Further, the IC50 on androgen receptor (AR) was > 2000 nM.
For `CC(=O)Nc1cc(COc2ccc(C(C)(C)c3cc(Cl)c(OCCCCl)c(Cl)c3)cc2)on1` [Compound A23] the same measures were 12 to 48 µL/min/mg and > 2000 nM.
The like results for `CC(C)(c1ccc(-n2cnc(CNS(C)(=O)=O)c2)cc1)c1cc(Cl)c(OCCCl)c(Cl)c1` [Compound A24] were, in that order, < 12 µL/min/mg and 500 to 2000 nM.
For `CC(C)(c1ccc(-c2c[nH]c(CNS(C)(=O)=O)n2)cc1)c1cc(Cl)c(OCCCCl)c(Cl)c1` [Compound A25] the same measures were < 12 µL/min/mg and > 2000 nM.
In the case of `CC(C)(C)N(c1ccc(OCc2ocnc2S(C)(=O)=O)cc1)c1cc(Cl)c(OCCCl)c(Cl)c1` [Compound A31, N-tert-Butyl-3,5-dichloro-4-(2-chloroethoxy)-N-[4-[(4-methylsulfonyloxazol-5-yl)-methoxy]-phenyl]aniline], in data set [1], the microsomal CLint at 1 μM fell in the range of 12 to 48 µL/min/mg. Also, the IC50 on androgen receptor (AR) was < 500 nM.
For `CC(C)(c1ccc(OCc2[nH]ncc2NS(C)(=O)=O)cc1)c1cc(Cl)c(OCCCl)c(Cl)c1` [Compound A40, N-[3-[[4-[1-[3,5-Dichloro-4-(2-chloroethoxy)phenyl]-1-methyl-ethyl]phenoxy]methyl]-1H-pyrazol-4-yl]methanesulfonamide] the same measures were 12 to 48 µL/min/mg and 500 to 2000 nM.
The like results for `CC(C)(c1ccc(OCc2ncncc2NS(C)(=O)=O)cc1)c1cc(Cl)c(OCCCl)c(Cl)c1` [Compound A41, N-(4-((4-(2-(3,5-Dichloro-4-(2-chloroethoxy)phenyl)propan-2-yl)phenoxy)methyl)pyrimidin-5-yl)methanesulfonamide] were, in that order, ≥ 48 µL/min/mg and > 2000 nM.
As for `CC(C)(c1ccc(OCc2ocnc2S(C)(=O)=O)cc1)c1cc(Cl)c(NCCCl)c(Cl)c1` [Compound A50], the microsomal CLint at 1 μM in data set [1] fell in the range of 12 to 48 µL/min/mg. In addition, on androgen receptor (AR), the half-inhibitory concentration (IC50) was 500 to 2000 nM.
For `CCOc1c(Cl)cc(C(C)(C)c2ccc(OCc3ocnc3S(C)(=O)=O)cc2)cc1Cl` [Compound A52] the same measures were < 12 µL/min/mg and > 2000 nM.
In the case of `CC(C)(c1ccc(OCc2ocnc2S(C)(=O)=O)cc1)c1cc(Cl)c(OCCN)c(Cl)c1` [Compound A53], in data set [1], the microsomal CLint at 1 μM is < 12 µL/min/mg. Moreover, on androgen receptor (AR), the IC50 was > 2000 nM.
Take `CC(C)(c1ccc(OCc2ocnc2S(C)(=O)=O)cc1)c1cc(Cl)c(OCCC(F)(F)F)c(Cl)c1` [Compound A54, 5-((4-(2-(3,5-Dichloro-4-(3,3,3-trifluoropropoxy)phenyl)propan-2-yl)phenoxy)methyl)-4-(methylsulfonyl)oxazole]: the microsomal CLint at 1 μM in data set [1] was < 12 µL/min/mg. For the same compound, the IC50 on androgen receptor (AR) was in the range of 500 to 2000 nM.
For `COc1c(Cl)cc(C(C)(C)c2ccc(OCc3ocnc3S(C)(=O)=O)cc2)cc1Cl` [Compound A56], the microsomal CLint at 1 μM in data set [1] is < 12 µL/min/mg. At androgen receptor (AR), the IC50 fell in the range of 500 to 2000 nM.
The like results for `CC(C)(c1ccc(OCc2ocnc2S(C)(=O)=O)cc1)c1cnc(NCCCl)nc1` [Compound A58] were, in that order, 12 to 48 µL/min/mg and > 2000 nM.
Consider `CC(C)(c1ccc(OCCCl)c(Cl)c1)c1ccc(OCc2ocnc2S(C)(=O)=O)c(C#N)c1` [Compound A62], for which the microsomal CLint at 1 μM in data set [1] was < 12 µL/min/mg. On androgen receptor (AR), the IC50 is > 2000 nM.
The like results for `CC(C)(c1ccc(OCCCl)c(C#N)c1)c1ccc(OCc2ocnc2S(C)(=O)=O)c(C#N)c1` [Compound A63, 2-(2-chloroethoxy)-5-(2-(3-cyano-4-((4-(methylsulfonyl)oxazol-5-yl)methoxy)phenyl)propan-2-yl)benzonitrile] were, in that order, 12 to 48 µL/min/mg and 500 to 2000 nM.
For `Cc1nc(-c2ccc(C(C)(C)c3cc(Cl)c(OCCCCl)c(Cl)c3)cc2)co1` [Compound A64] the same measures were ≥ 48 µL/min/mg and > 2000 nM.
Regarding `CC(C)(c1ccc(OCc2noc(S(C)(=O)=O)n2)cc1)c1cc(Cl)c(OCCCl)c(C#N)c1` [Compound A151], on androgen receptor (AR), the IC50 lay within 500 to 2000 nM.
Same read-out and setting: as for `CC(C)(c1ccc(OCc2nc(NS(C)(=O)=O)nc3c2CCNC3)cc1)c1cc(Cl)c(OCCCl)c(C#N)c1` [Compound A191], the figure is 500 to 2000 nM; as for `CC(C)(c1ccc(OC2CCc3cnc(NS(C)(=O)=O)nc32)cc1)c1cc(Cl)c(OCCCl)c(C#N)c1` (stereo not drawn) [Compound A203], 500 to 2000 nM.
On the same count and under the same terms, the same measure for `CC(C)(c1ccc(OCc2ccnc(NS(C)(=O)=O)n2)cc1)c1cc(F)c(OCCCl)c(C#N)c1` [Compound A205]: 500 to 2000 nM.

For the origin of these results see US11059795B2, “Androgen receptor modulators and methods for their use” (ESSA Pharma, Inc., priority 2018, dated 2021).
